Experimental findings from patent US12016870B2, “Agents for use in the treatment of cardiac arrhythmia” (priority 2018, dated 2024) are described below.

In data set [1] the test system is multi-junction preparations (branched tissue architecture) of rat cardiomyocytes. Description: Conduction velocity in branched (multi-junction) cardiomyocyte preparations, model of discontinuous conduction. The data set is classed as cell-based. The following applies: 10 nmol/L Gb3 for 24 hrs. As to the method:
Impulse propagation along the patterned preparations was followed optically using a fast voltage-sensitive dye (Rohr et al., 1994, Biophys J., 67(3):1301-1315). In short, the preparations were stained for 3 to 4 minutes with 1 mL of the superfusion solution containing […] of the voltage-sensitive dye di-8-ANEPPS (Molecular Probes). The dye was excited by a short-arc xenon lamp driven by a low-ripple power supply (Optiquip). The light was, after passing a shutter (VS25S21 MO, Vincent Assoc), short-pass filtered (570 EFSP, Omega) and deflected toward the objective by means of a dichroic mirror (575 nm; Omega). Emitted fluorescence from the preparation was long-pass filtered (590 nm, Omega) and projected onto a 2-dimensional array of 379 optical fibers, which formed a hexagonal array (Rohr et al., 1998, Biophys J., 75(2):1062-1075). From the entire array, ≤80 fibers were selected according to the shape of a given preparation and were connected to individual photodiodes. […] Experiments were performed with a 20×, 0.75 numerical aperture (NA) objective (each detector monitored a circular area with a diameter of 50 um corresponding to 4 to 10 cells contributing to the signal) permitting assessment of activation along the preparations for distances up to 1 mm. […]
The raw data were analyzed by programming routines written in Interactive Data Language (IDL; Creaso). […]

In data set [2] the test system is tissue engineered strands of rat ventricular cardiomyocytes. The experiment in a line: Conduction velocity along linear tissue engineered cardiomyocyte strands, optical recording with di-8-ANEPPS. It is filed as cell-based. The note with it: for Conduction velocity (CV) along strands of cardiomyocytes: mean+/-SD. As to the method:
The effects of Gb3 on impulse propagation characteristics were investigated in tissue engineered strands of rat ventricular cardiomyocytes where impulse propagation was recorded using the voltage sensitive dye di-8-ANEPPS as described below.
Impulse propagation along the patterned preparations was followed optically using a fast voltage-sensitive dye (Rohr et al., 1994, Biophys J., 67(3):1301-1315). In short, the preparations were stained for 3 to 4 minutes with 1 mL of the superfusion solution containing […] of the voltage-sensitive dye di-8-ANEPPS (Molecular Probes). The dye was excited by a short-arc xenon lamp driven by a low-ripple power supply (Optiquip). The light was, after passing a shutter (VS25S21 MO, Vincent Assoc), short-pass filtered (570 EFSP, Omega) and deflected toward the objective by means of a dichroic mirror (575 nm; Omega). Emitted fluorescence from the preparation was long-pass filtered (590 nm, Omega) and projected onto a 2-dimensional array of 379 optical fibers, which formed a hexagonal array (Rohr et al., 1998, Biophys J., 75(2):1062-1075). From the entire array, ≤80 fibers were selected according to the shape of a given preparation and were connected to individual photodiodes. The resulting photocurrents were converted to voltages and amplified (typical overall gain of 2.5×10^9 V/A f0=1.6 kHz). The conditioned signals were simultaneously sampled at 20 kHz/channel by a computer-based data acquisition system. Experiments were performed with a 20×, 0.75 numerical aperture (NA) objective (each detector monitored a circular area with a diameter of 50 um corresponding to 4 to 10 cells contributing to the signal) permitting assessment of activation along the preparations for distances up to 1 mm.
After mounting the preparations in the experimental chamber, control superfusion was started (Hanks' balanced salt solution (HBSS), containing (mmol/L) NaCl 137, KCl 5.4, CaCl2 1.3, MgSO4 0.8, NaHCO3 4.2, KH2PO4 0.5, NaH2PO4 0.3, and HEPES 10, which was titrated to pH 7.40 with NaOH). The preparations were stimulated with bipolar electrodes consisting of glass micropipettes (filling, HBSS with 1% agar) and a silver wire coiled around the shank of the electrode. The electrodes were attached to micromanipulators (DC-3K, Marzhauser) and placed at a sufficient distance from the measurement site (1 mm) to (1) avoid electronically mediated stimulation artifacts to distort the signal of interest and (2) permit propagation to reach steady-state conditions at the site of the measurement. Rectangular impulses (duration, 1 ms; 2-3 times threshold intensity) were delivered to the preparations at a basic cycle length of 500 ms by a stimulator (SD9, Grass Instruments) for at least 10 seconds before a given optical recording. All experiments were performed at a temperature of 36+/−0.4° C.
The raw data were analyzed by programming routines written in Interactive Data Language (IDL; Creaso). The data processing typically involved manual selection of the upstroke portions of the action potentials to omit any signal distortion due to motion artifacts occurring several milliseconds after the upstrokes. The data were digitally low-pass filtered and signal amplitudes obtained under control conditions were set to 100%.
While control preparations conducted action potentials (APs) at a speed of 321.8±20.9 mm/sec (N=15), CVs in strands incubated with 10 nM Gb3 were increased by over 20% to 390.2±21.3 mm/sec (N=6, p<0.0001 versus control).

Turning to globotriaosylceramide [Gb3], in data set [1] (versus control branched preparations), the “Increase in CV in branched preparations treated with Gb3” value is approximately 67%. Besides, the “CV in multi-junction preparations as % of linear strands” value in data set [1] (N=25, normalized to linear strands grown in parallel (control multi-junction 57.4±6.7%)) is reported as 84.7±2.3%. Besides, the “Increase of CV versus control” value in data set [2] (10 nM Gb3, 24 hours exposure) is “over 20%”. Moreover, the “Conduction velocity (CV) along strands of cardiomyocytes” value in data set [2] (10 nM Gb3, 24 hours exposure, N=6, p<0.0001 versus control (control 321.8±20.9 mm/sec)) is 390.2±21.3 mm/sec; in data set [2] (100 nM Gb3, 24 hours exposure, p<0.005 vs control), 358.8±20.3 mm/sec; in data set [2] (1 μM Gb3, 24 hours exposure, p=0.3 vs control), 338.4±27.3 mm/sec. For the same substance, in data set [2] (all Gb3 concentrations used, 24 hours exposure), the Cytotoxic effects result is recorded as “None of the concentrations of Gb3 used were associated with cytotoxic effects”.
